Data as given in PubChem BioAssay (NCI).
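Protocol summary: plate cells (96-well), add compound at 5 concentrations, incubate 48 h, interpolate endpoints linearly. TGI denotes the concentration required for complete inhibition of growth.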

Key:
Experiment in all cases: DTP human tumour cell line panel, 48 h
SK-MEL-5 melanoma = tested on: SK-MEL-5 melanoma
HOP-92 NSCLC = tested on: HOP-92 NSCLC
EKVX NSCLC = tested on: EKVX NSCLC
HS 578T breast = tested on: HS 578T breast
RXF 393 renal = tested on: RXF 393 renal
SR leukemia = tested on: SR leukemia
A549 NSCLC = tested on: A549 NSCLC
OVCAR-8 ovarian = tested on: OVCAR-8 ovarian
NCI/ADR-RES ovarian = tested on: NCI/ADR-RES ovarian
SN12C renal = tested on: SN12C renal
IGROV1 ovarian = tested on: IGROV1 ovarian
SNB-19 CNS = tested on: SNB-19 CNS
UACC-257 melanoma = tested on: UACC-257 melanoma
T-47D breast = tested on: T-47D breast
SF-539 CNS = tested on: SF-539 CNS
UO-31 renal = tested on: UO-31 renal
SNB-75 CNS = tested on: SNB-75 CNS
SF-295 CNS = tested on: SF-295 CNS
MCF7 breast = tested on: MCF7 breast
SK-MEL-2 melanoma = tested on: SK-MEL-2 melanoma

| Structure (SMILES) | TGI (SK-MEL-5 melanoma) [µM] | TGI (HOP-92 NSCLC) [µM] | TGI (EKVX NSCLC) [µM] | TGI (HS 578T breast) [µM] | TGI (RXF 393 renal) [µM] | TGI (SR leukemia) [µM] | TGI (A549 NSCLC) [µM] | TGI (OVCAR-8 ovarian) [µM] | TGI (NCI/ADR-RES ovarian) [µM] | TGI (SN12C renal) [µM] | TGI (IGROV1 ovarian) [µM] | TGI (SNB-19 CNS) [µM] | TGI (UACC-257 melanoma) [µM] | TGI (T-47D breast) [µM] | TGI (SF-539 CNS) [µM] | TGI (UO-31 renal) [µM] | TGI (SNB-75 CNS) [µM] | TGI (SF-295 CNS) [µM] | TGI (MCF7 breast) [µM] | TGI (SK-MEL-2 melanoma) [µM] |
| --- | --- | --- | --- | --- | --- | --- | --- | --- | --- | --- | --- | --- | --- | --- | --- | --- | --- | --- | --- | --- |
| Cc1ccc(N/N=C/C2=CC(C)(C)C(C#N)(C#N)C(O)=C2C#N)cc1 | > 100 | 42.2 | > 100 | > 100 | 85.2 | 91.2 | > 100 | > 100 | > 100 | > 100 | > 100 | > 100 | > 100 | > 100 | > 100 | > 100 | > 100 | > 100 | > 100 |  |
| CCOP(=O)(OCC)c1cc2cc(O)ccc2oc1=O | > 100 | > 100 | > 100 | > 100 | > 100 | > 100 | > 100 | > 100 | > 100 | > 100 | > 100 | > 100 | > 100 | > 100 | > 100 | 0.151 | > 100 | > 100 | > 100 |  |
| CC1(C)[C@H]2CC[C@](C)(C2)[C@]1(S)Cc1ccccn1 | 64.3 | > 100 | > 100 | > 100 | 80.2 | 43.2 | > 100 | 42.6 | > 100 | > 100 | > 100 | > 100 | 72.7 | 73.1 | > 100 | > 100 | 77.1 | 98.8 | > 100 | 46.1 |
| Nc1nc(Cl)cc(NCC2(CO)CC(CCCc3ccccc3)C2)n1 (centres undefined) | > 100 | > 95.9 | > 100 | > 100 | > 78.2 | > 100 | > 100 | > 100 | > 100 | > 100 | > 100 | > 100 | > 93.7 | > 100 | > 100 | > 100 | 98.2 | > 100 | > 100 | > 100 |
| NNC(=O)CC(=O)Nc1ccccc1Cl | > 100 | > 100 | > 100 | > 100 | > 100 | > 100 | > 100 | > 100 | > 100 | > 100 | > 100 | > 100 | > 100 | > 100 | > 100 | > 100 | > 100 | > 100 | > 100 | > 100 |
| C=CC(C)CCC(C/C=C(\C)CCCC(C)C)C(=C)CCCC(C)C (centres undefined) | > 100 | > 100 | > 100 | > 100 | > 100 | > 100 | > 100 | > 100 | > 100 | > 100 | > 100 | > 100 | > 100 | > 100 | > 100 | > 100 | > 100 | > 100 | > 100 | > 100 |
| CC(=O)OC(=C(C#N)C#N)c1nccnc1C(=O)O | > 100 | > 100 | > 100 | > 100 | > 100 | > 100 | > 100 | > 100 | > 100 | > 100 | > 100 | > 100 | > 100 | > 100 | > 100 | > 100 | > 100 | > 100 | > 100 | > 100 |
| O=P1(N(CCCl)CCCl)Oc2c(Cl)cc(Cl)c(Cl)c2Cc2c(Cl)c(Cl)cc(Cl)c2O1 | > 100 | 66.5 | > 100 | > 100 | > 100 | > 100 | > 100 | > 100 | > 100 | > 100 |  |  | > 100 | > 100 | > 100 | > 100 | > 100 | > 100 | > 100 | 74.5 |
| N=C1/C(=C/c2ccco2)C(=O)N=C2SC=NN12 | > 100 | > 100 | > 100 | > 100 | > 100 | > 100 | > 100 | > 100 | > 100 | > 100 | > 100 | > 100 | > 100 | > 100 | > 100 | > 100 | > 100 | > 100 | > 100 | > 100 |
| COCn1c(=O)n(C)c(=O)c2c1nc1c(c(=O)n(C)c(=O)n1COC)[n+]2[O-] | 19.7 | 42 | 44.1 | 50.1 | 10.9 | 21.3 | 91.2 | 45.1 | > 100 | 83.7 | 48.9 | > 100 | 54.8 | 41.8 | 39.2 | > 100 | 22.3 | 55.4 | > 100 | 36.8 |
| CCCCCCCCCCCCCCCCC(=O)NCC(=O)NCC(=O)NC(Cc1ccccc1)C(=O)Oc1ccc([N+](=O)[O-])cc1 (centres undefined) | 47.4 | > 100 | > 100 | > 100 | 46.6 | 51.3 |  | 38.7 | 42.9 | 34.6 | > 100 |  | 57.4 | > 100 | 46.8 | > 100 | > 100 | 40.4 | > 100 | > 100 |
| COC(=O)c1c(O)ccc2c1c1cc3ccccc3c(O)c1n2Cc1ccccc1Cl | 56.2 | 91.7 | 87.1 | 84.4 | > 100 | > 100 | > 100 | > 100 | 64.3 | > 100 | 44.8 | > 100 | > 100 | 60.7 | 33.7 | 64.1 |  | 40.3 | > 100 | 40.7 |
| O=C1CC2(CCN(CC3COc4ccccc4O3)CC2)C(=O)N1N1CCCCCC1 (centres undefined) | > 100 | > 100 | > 100 | > 100 | > 100 | > 100 | > 100 | > 100 | > 100 | > 100 | > 100 | > 100 | > 100 | > 100 | > 100 | > 100 | > 100 | > 100 | > 100 | > 100 |
| CSc1ccc(/C=C/C(=O)c2nc3ccccc3[nH]2)cc1 | 57.8 | > 100 | 54.4 | > 100 |  | 6.56 | 98.6 | > 100 | 64.1 | > 100 | > 100 | 49.4 | 67.1 | 29.7 | > 100 | 19.9 | 43.8 | > 100 | 8.97 | 37.7 |
| CC(SC(=S)N(C)C)C(=O)Nc1nnc(-c2ccc(Cl)cc2)o1 (centres undefined) | > 100 | > 100 |  | > 100 | > 100 | 19.9 | > 100 | > 100 | > 100 | > 100 | > 100 | > 100 | > 100 | > 100 | > 100 | > 100 | > 100 |  | > 100 | > 100 |
| CCOc1cc(/C=N\O)cc(/C=N/O)c1O | 39.5 | 60.4 | > 100 | > 100 | 30.5 | > 100 | > 100 | 66.6 | > 100 | > 100 |  | > 100 | > 100 | 93.8 | 61.1 |  | 57.6 | > 100 | 25 | 41 |
| O=S(=O)(Nc1nc2ccccc2nc1Nc1cccc2ccccc12)c1ccccc1 | > 100 | 16.5 | > 100 | 95.2 | 78.9 | > 100 | > 100 | > 100 | > 100 | > 100 | > 100 | 61.2 | > 100 | > 100 | > 100 | > 100 | 57.6 | > 100 | > 100 | > 100 |
| COc1cc(/C=C2/CCCc3ccccc3C2=O)cc(OC)c1OC | 13.6 | > 82.2 | > 92.2 | > 84.2 | > 100 | > 39.2 | > 100 | > 69.8 | > 100 | > 51.4 | > 100 | > 100 | > 56.1 | > 100 | > 64.7 | > 60.2 | > 49.9 | > 57.6 | > 63.9 | > 55 |
| C/C(=N\N)C(CN1CCCCC1)C(c1ccccc1)c1c(O)c2ccccc2oc1=O (centres undefined) | > 100 | > 100 | > 100 | > 100 | > 100 | > 100 | > 100 | > 100 | > 100 | > 100 | > 100 | > 100 | > 100 | > 100 | > 100 | > 100 | > 100 | > 100 | > 100 | > 100 |
| O=c1[nH]c(=S)n(-c2cccc3ccccc23)c(O)c1/C=C1\C=Nc2ccccc21 | 3.12 | 4.85 | 5.38 | 58.8 | 3.43 | 4.04 | 20.6 | 6.86 | 10.5 | 5.29 | 4.76 | 11.3 | 5.51 | 19.3 | 5.38 | 4.93 | 6.42 | 10.3 | 7.19 | 3.55 |
| C[C@]12CCC(=O)C=C1CC[C@@H]1[C@@H]2CC[C@]2(C)C(=O)/C(=C/c3ccncc3)C[C@@H]12 | 22.1 | 42.8 | 35.6 | > 100 | 31.4 | 27.1 | 46.5 | 90.2 | > 100 | 39.4 | 61.9 | 26.8 | 28.6 | 66 | 46.1 | 26.6 | 45.1 | 36.1 | 24.1 | 28.9 |
| O=C1CC(C(O)C(O)C(O)CO)CC(=O)N1 (centres undefined) | > 100 | > 100 | > 100 | > 100 | > 100 | > 100 | > 100 | > 100 | > 100 | > 100 | > 100 | > 100 | > 100 | > 100 | > 100 | > 100 | > 100 | > 100 | > 100 |  |
| Cc1nc2ccc(F)cc2c2c1CCN2c1ccccc1 | 26.8 | 37.8 | 94.9 | > 100 | 35.7 | 37 | 68 | 44.6 | 68 |  | > 100 | > 100 | 40.1 | 85.8 | 44 | 68.1 | 79.1 | 34.4 | 64.7 |  |
| C=C1CC(COc2ccc3c(C)c(Cl)c(=O)oc3c2)(c2ccccc2)OC1=O (centres undefined) | 3.63 | 3.01 | 31.2 | 17.5 |  | > 21.5 | 27.9 | 5.61 | 11.4 | 20.1 | 3.89 | 29.7 | 4.01 | 4.15 | 7.34 | 12.5 | 11.7 | 22.7 | 5.14 | 3.36 |
